The subject of data set [1] is Human peripheral blood mononuclear cells (PBMC). The data set is described as follows: Inhibition of osteoclast formation (RANKL/M-CSF induced, TRAP staining). The class given is cell-based. The protocol: (§1) Human peripheral blood mononuclear cells (PBMC) were isolated from healthy donor blood. The cells were seeded in multi-well plates at 7.5×10^5 cells/ml in RPMI 1640 medium including 10% FBS. Osteoclast formation was induced with 20 ng/ml of recombinant human receptor activator of NF-kB-ligand (RANKL) and 10 ng/ml of human M-CSF in the presence of various doses of test compounds. After 48 hours of culture, RANKL and M-CSF was replenished and further cultured for 2 days. Then, the cultured cells were stained for tartrate-resistant acid phosphatase (TRAP). Osteoclasts were identified as TRAP-positive cells with more than 3 nuclei. Total cell viability was assessed by CCK-8 assay (Dojindo, Gaithersburg, Md.) with 24 hour incubation.
as §1, with “Isolated” for “isolated”

Data set [2] can be described thus: Total cell viability by CCK-8 assay. The following applies: human. Type of data set: cell-based. The protocol: as §1
as §1, with “Isolated” for “isolated”
(Formazan colour is commonly taken as a measure of viable cells.)

[3] abbreviates: 96 h, read-out: IC50 (compound concentration required for 50% inhibition of osteoclast formation), Table 1, 20 ng/ml RANKL + 10 ng/ml M-CSF, TRAP-positive cells with more than 3 nuclei.
Setting [4] is: 96 h, read-out: IC50 (compound concentration required for 50% inhibition of osteoclast formation), Table 2, 20 ng/ml RANKL + 10 ng/ml M-CSF, TRAP-positive cells with more than 3 nuclei.
Setting [5] is: 96 h, read-out: IC50 (compound concentration required for 50% inhibition of osteoclast formation), Table 3, 20 ng/ml RANKL + 10 ng/ml M-CSF, TRAP-positive cells with more than 3 nuclei.

pIC50: −log10 of the molar value. Read-outs that look alike come from different tables or passages of the source.

For orientation: CC50 means the concentration giving 50% cytotoxicity. A lower CC50 goes with harm at low concentration.

Regarding `C[C@]12CC[C@@H]3c4ccc(O)cc4CC[C@H]3[C@@H]1CC[C@@H]2O` [17β-estradiol, reference compound], the pIC50 in data set [1] (read-out: IC50 (compound concentration required for 50% inhibition of osteoclast formation), Table 1, 20 ng/ml RANKL + 10 ng/ml M-CSF, TRAP-positive cells with more than 3 nuclei) was 7.11; in data set [1] (read-out: IC50 (compound concentration required for 50% inhibition of osteoclast formation), Table 2, 20 ng/ml RANKL + 10 ng/ml M-CSF, TRAP-positive cells with more than 3 nuclei) it was 7.11; in data set [1] (read-out: IC50 (compound concentration required for 50% inhibition of osteoclast formation), Table 3, 20 ng/ml RANKL + 10 ng/ml M-CSF, TRAP-positive cells with more than 3 nuclei), 7.11.

On to `Cc1cccc(/C=N/Nc2cc(N3CCOCC3)nc(OCCc3ccccn3)n2)c1` [Compound 12, N-(3-methyl-benzylidene)-N′-[6-morpholin-4-yl-2-(2-pyridin-2-yl-ethoxy)-pyrimidin-4-yl]-hydrazine], for which the pIC50 in data set [1] (setting [3]) is 7.82. Also, the CC50 at 24 h in data set [2] (Table 1, 24 hour incubation) turned out to be 3250 nM.

On to `Cc1cccc(/C=N/Nc2cc(N3CCOCC3)nc(OCCc3cccc[n+]3[O-])n2)c1` [Compound 28, N-(3-methyl-benzylidene)-N′-{6-morpholin-4-yl-2-[2-(1-oxy-pyridin-2-yl)-ethoxy]-pyrimidin-4-yl}-hydrazine], for which the pIC50 in data set [1] (setting [3]) was 7.15. The CC50 at 24 h in data set [2] (Table 1, 24 hour incubation) is over 1000 nM.

For `Cc1cccc(C=NNc2cc(N3CCOCC3)nc(OCC(O)c3ccccn3)n2)c1` (stereo not shown) [Compound 42, 2-{4-[N′-(3-Methyl-benzylidene)-hydrazino]-6-morpholin-4-yl-pyrimidin-2-yloxy}-1-pyridin-2-yl-ethanol], the pIC50 in data set [1] (setting [3]) is 8.10. Besides, the 50% cytotoxic concentration (CC50) at 24 h in data set [2] (Table 1, 24 hour incubation) was over 1000 nM.

As to `Cc1cccc(/C=N/Nc2cc(N3CCOCC3)nc(OCCc3ccc(O)cn3)n2)c1` [Compound 43, 6-(2-{4-[N′-(3-Methyl-benzylidene)-hydrazino]-6-morpholin-4-yl-pyrimidin-2-yloxy}-ethyl)-pyridin-3-ol], the pIC50 in data set [1] (setting [3]) was 7.92. In addition, in data set [2] (Table 1, 24 hour incubation), the CC50 at 24 h is over 1000 nM.

Consider `OCc1cccc(/C=N/Nc2cc(N3CCOCC3)nc(OCCc3ccc(O)cn3)n2)c1` [Compound 44, 6-(2-{4-[N′-(3-Hydroxymethyl-benzylidene)-hydrazino]-6-morpholin-4-yl-pyrimidin-2-yloxy}-ethyl)-pyridin-3-ol], for which, in data set [1] (setting [3]), the pIC50 is 7.77. For the same molecule, in data set [2] (Table 1, 24 hour incubation), the CC50 at 24 h was over 1000 nM.

Turning to `Cc1[nH]c2ccc(Nc3nc(OCCc4ccccn4)nc(N4CCOCC4)n3)cc2c1C` [Compound 102], the pIC50 in data set [1] (setting [4]) is 8.52. For the same molecule, in data set [2] (Table 2, 24 hour incubation), the CC50 at 24 h is over 1000 nM.

For `COc1ccc(CCOc2nc(Nc3ccc4c(c3)oc3ccccc34)nc(N3CCOCC3)n2)cc1OC` [Compound 113, Dibenzofuran-3-yl-{4-[2-(3,4-dimethoxy-phenyl)-ethoxy]-6-morpholin-4-yl-[1,3,5]triazin-2-yl}-amine], the pIC50 in data set [1] (setting [4]) is 7.92. Besides, in data set [2] (Table 2, 24 hour incubation), the CC50 at 24 h was over 1000 nM.

For the molecule `c1cncc(OCCOc2nc(Nc3ccc4c(c3)oc3ccccc34)nc(N3CCOCC3)n2)c1` [Compound 114, Dibenzofuran-3-yl-{4-morpholin-4-yl-6-[2-(pyridin-3-yloxy)-ethoxy]-[1,3,5]triazin-2-yl}-amine], the pIC50 in data set [1] (setting [4]) was 7.62. The CC50 at 24 h in data set [2] (Table 2, 24 hour incubation) is over 1000 nM.

For `Cc1[nH]c2cc(Nc3nc(OCCOc4cccnc4)nc(N4CCOCC4)n3)ccc2c1C` [Compound 115, (2,3-Dimethyl-1H-indol-6-yl)-{4-morpholin-4-yl-6-[2-(pyridin-3-yloxy)-ethoxy]-[1,3,5]triazin-2-yl}-amine], the pIC50 in data set [1] (setting [4]) is 7.80. Moreover, in data set [2] (Table 2, 24 hour incubation), the cytotoxic concentration (CC50) at 24 h was over 1000 nM.

`C(=NNc1nc(OCCc2ccccn2)nc(N2CCOCC2)n1)c1c[nH]c2ccccc12` [Compound 116, N-(1H-indol-3-ylmethylene)-N′-[4-morpholin-4-yl-6-(2-pyridin-2-yl-ethoxy)-[1,3,5]triazin-2-yl]-hydrazine]: the pIC50 in data set [1] (setting [4]) is 7.46. In data set [2] (Table 2, 24 hour incubation), this molecule came in with a CC50 at 24 h of over 10000 nM.

Turning to `Cc1cccc(Nc2nc3c(N4CCOCC4)nc(OCCOc4ccccn4)nc3[nH]2)c1` [Example 63, {6-morpholin-4-yl-2-[2-(pyridin-2-yloxy)-ethoxy]-9H-purin-8-yl}-m-tolyl-amine], in data set [1] (setting [5]), the pIC50 was 8.52. This molecule also returned a CC50 at 24 h in data set [2] (Table 3, 24 hour incubation) of over 1000 nM.

In the case of `Cc1cccc(Nc2nc(N3CCOCC3)c3nc(Nc4cccc(C)c4)[nH]c3n2)c1` [Example 79, 6-morpholin-4-yl-N^2,N^8-di-m-tolyl-9H-purine-2,8-diamine], in data set [1] (setting [5]), the pIC50 is 8.05. Moreover, the CC50 at 24 h in data set [2] (Table 3, 24 hour incubation) is over 1000 nM.

For `Cc1cccc(Nc2nc(N3CCOCC3)c3nc(Nc4cccc(C)c4)n(C)c3n2)c1` [Example 116, 9-Methyl-6-morpholin-4-yl-N^2,N^8-di-m-tolyl-9H-purine-2,8-diamine], the pIC50 in data set [1] (setting [5]) was 8.70. Besides, the half-maximal cytotoxic concentration (CC50) at 24 h in data set [2] (Table 3, 24 hour incubation) was over 1000 nM.

On to `COc1ccc(N(C)c2nc(N3CCOCC3)c3nc(Nc4cccc(C)c4)[nH]c3n2)cc1` [Example 117, N^2-(4-Methoxy-phenyl)-N^2-methyl-6-morpholin-4-yl-N^8-m-tolyl-9H-purine-2,8-diamine], for which the pIC50 in data set [1] (setting [5]) is 7.92. In addition, in data set [2] (Table 3, 24 hour incubation), the CC50 at 24 h was over 1000 nM.

The values above are taken from US20080058297A1, “Heterocyclic Compounds For Preventing And Treating Disorders Associated With Excessive Bone Loss” (Synta Pharmaceuticals Corp., priority 2003, published 2008).
